Measured values from patent US20040044037A1, “Amidino-urea serotonin receptor ligands and compositions, their pharmaceutical uses, and methods for their snythesis” (priority 2003, published 2004).

What was measured:
[1] = target: T1, human 5-HT6 (h5-HT6) receptors (Homo sapiens, UniProt P50406); assay: Competition radioligand binding, h5-HT6; details: [3H]LSD; membranes of HEK-293 cells; read-out: Ki 5-HT6
T1 construct: purchased Receptor Biology, Inc. (Beltsville, Md.); host or cells: HEK-293 cells

[2] = target: T2, human 5-HT7B (h5-HT7b) receptors (Homo sapiens, UniProt P34969); assay: Competition radioligand binding, h5-HT7b; details: [3H]5-CT; membranes of HEK 293 cells; read-out: Ki 5-HT7
T2 construct: expressed in transfected cells
From the text: The compounds of the invention interact with 5-HT receptors and show selectivity for 5-HT receptors. The 5-HT receptor binding properties of the compounds are identified by competitive radioligand binding assays wherein membranes prepared from transfected cells expressing the 5-HT receptor subtype of interest. “Binding constants” refers herein to Ki values measured by inhibition of the binding of radiolabelled ligands that are selective for the 5-HT receptor type being studied. For 5-HT7 receptors, Ki values are determined by measuring the inhibition of 5-carboxamidotryptamine (5-CT) binding, wherein 5-HT7 receptors were incubated with the radiolabelled high affinity ligand, 5-carboxamidotryptamine ([^3H]5-CT), in the presence and absence of the compounds of the invention, at varying concentrations. The compounds of the invention have high binding affinity for serotonin receptors as measured by dissociation constant Ki. […] “Selectivity” for receptor type, in the context of this invention, refers to the ratio of binding constants for the two receptor types being compared. […] The compounds of the present invention preferably show selectivity for 5-HT7 receptors over other serotonin receptor subtypes of greater than about 100. The compounds of the present invention also preferably show selectivity for 5-HT7 receptors over other receptor types, such as dopamine D2, of greater than about 100.
Cells and Membrane Preparation: HEK 293 cells stably expressing human 5-HT7B (h5-HT7b) receptors were grown in Dulbecco's Modified Eagle's Medium (DMEM; Gibco) without sodium pyruvate and containing 4.5 g/L glucose, L-glutamine/penicillin-streptomycin (Gemini), 10% fetal bovine serum and 250 mg/l of the antibiotic, G418 (Geneticin) as previously described (Jasper, J. R., Kosaka, A., To, Z. P., Chang, D. J. and Eglen, R. M. (1997) Cloning, expression and pharmacology of a truncated splice variant of the human 5-ht7 receptor (h5-ht7b). Br. J. Pharmacol. 122(1):126-132.). Cell pellets were homogenized in approximately 50 mL of homogenization buffer (buffer A) containing: 50 mM Tris (pH 7.4), 2 mM EGTA, 0.32 M sucrose, 10 μM PMSF, 1 μg/mL leupeptin, 5 μg/mL Pepstatin A, and 5 μg/mL aprotinin using an UltraTurax homogenizer (Tekmar Company, Cincinnati, Ohio) at 80% maximum setting three times for 10 sec. Cell pellets were centrifuged at 4° C. at 1,500×g for 10 min in a Beckman GS-6R centrifuge. Pellets were resuspended in buffer A, homogenized and centrifuged as described above. Pooled supernatants were transferred to centrifuge bottles and centrifuged at 4° C. at 20,000×g for 30 min in a Beckman J2-HS centrifuge. Cell pellets were resuspended in buffer A and were centrifuged at 4° C. at 20,000×g for 30 min. Cell pellets were resuspended in buffer A and stored at −70° C. in aliquots of 2.5 mg/mL total membrane protein. Total membrane protein was assessed utilizing a BCA kit (Pierce; Rockford, Ill.). Membranes containing human 5-HT1a or 5HT2a receptors expressed in CHO K1 cells were prepared as described above.
Radioligand Binding Assays: For 5-HT7 saturation binding experiments, HEK-293 cell membranes expressing h5-HT7 receptors (5-10 μg membrane protein/well) were incubated in duplicate with [^3H]5-CT (approximately 0.2 nM) in binding assay buffer containing: 50 mM HEPES (pH 7.4), 0.5 mM EDTA, 10 mM MgCl2, 10 μM pargyline to inhibit monoamine oxidase activity, and 0.1% sodium ascorbate, in a final volume of 200 μL in 96-well polypropylene plates for 2 hours at 37° C. Nonspecific binding was determined by incubating membranes with 1 μM 5-HT. All radioligand binding assays were stopped by rapid filtration onto 96-well GF/C filter plates (Packard) soaked in 0.1% polyethylenimine. Filters were washed three times with ice-cold phosphate-buffered saline (PBS) wash buffer containing 50 mM NaPO4 (pH 7.4), 0.9% NaCl, 2 mM MgCl2 and 0.02% NaN3. The filters were then counted using liquid scintillation in a Packard Topcount scintillation counter. […]

[3] = target: T3, human D2S dopamine (hD2S-DA) receptors (Homo sapiens, UniProt P14416); assay: Competition radioligand binding, hD2S dopamine; details: [3H]Spiperone; membranes of A9 L cells; read-out: Ki D2
T3 construct: purchased Receptor Biology, Inc. (Beltsville, Md.); host or cells: A9 L cells
T3 sequence (P14416 1-414 isoform P14416-2): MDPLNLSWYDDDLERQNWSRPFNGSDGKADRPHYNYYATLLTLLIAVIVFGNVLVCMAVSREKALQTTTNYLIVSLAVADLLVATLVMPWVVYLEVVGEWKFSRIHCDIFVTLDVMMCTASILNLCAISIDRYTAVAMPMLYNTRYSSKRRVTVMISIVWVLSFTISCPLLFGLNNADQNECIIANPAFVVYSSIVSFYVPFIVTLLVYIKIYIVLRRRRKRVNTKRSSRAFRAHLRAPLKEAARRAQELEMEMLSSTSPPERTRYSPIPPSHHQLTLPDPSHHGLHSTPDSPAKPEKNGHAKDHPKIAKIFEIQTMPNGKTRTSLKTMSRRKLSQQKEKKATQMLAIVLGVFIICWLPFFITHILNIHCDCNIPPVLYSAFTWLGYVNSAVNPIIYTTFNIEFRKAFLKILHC

T2 sequence (P34969 1-432 limits assumed): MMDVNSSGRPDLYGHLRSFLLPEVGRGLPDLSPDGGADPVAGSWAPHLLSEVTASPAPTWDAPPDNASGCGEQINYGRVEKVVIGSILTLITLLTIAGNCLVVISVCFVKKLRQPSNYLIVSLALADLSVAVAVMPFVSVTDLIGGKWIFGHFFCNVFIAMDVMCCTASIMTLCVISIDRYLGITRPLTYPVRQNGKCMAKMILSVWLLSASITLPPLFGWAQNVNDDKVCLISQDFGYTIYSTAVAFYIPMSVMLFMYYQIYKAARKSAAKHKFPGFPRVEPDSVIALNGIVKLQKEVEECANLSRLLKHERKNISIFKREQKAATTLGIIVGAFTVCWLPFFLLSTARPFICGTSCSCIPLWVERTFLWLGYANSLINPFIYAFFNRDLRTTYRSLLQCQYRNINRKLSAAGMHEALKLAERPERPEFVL
T1 sequence (P50406 whole entry): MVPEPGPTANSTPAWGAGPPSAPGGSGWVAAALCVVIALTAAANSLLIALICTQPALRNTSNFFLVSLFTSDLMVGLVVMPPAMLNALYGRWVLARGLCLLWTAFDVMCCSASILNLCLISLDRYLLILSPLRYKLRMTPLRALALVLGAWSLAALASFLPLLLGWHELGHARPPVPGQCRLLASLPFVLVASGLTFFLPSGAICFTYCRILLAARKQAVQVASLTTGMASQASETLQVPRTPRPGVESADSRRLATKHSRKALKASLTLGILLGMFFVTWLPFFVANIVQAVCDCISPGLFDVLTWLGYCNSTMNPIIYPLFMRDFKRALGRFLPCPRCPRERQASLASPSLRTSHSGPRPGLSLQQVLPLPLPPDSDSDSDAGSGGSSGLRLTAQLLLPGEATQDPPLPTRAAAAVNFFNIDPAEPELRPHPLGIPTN

SMILES | Ki [1] [µM] | Ki [2] [µM] | Ki [3] [µM]
N=C(NC(=O)NCc1cccc(Cl)c1Cl)NC1CCCCC1O (stereo not drawn) [Example 9, 1,2-Dichloro-3-{[({[[(2-hydroxycyclohexyl)amino](imino)methyl]amino}carbonyl)amino]methyl}benzene] | – | 0.32 | –
Cc1ccccc1CNC(=O)NC(=N)NCCc1ccccn1 [Example 10, 2-(2-{[Imino([{(2-methylbenzyl)amino]carbonyl}amino)methyl]amino}ethyl)pyridine] | – | 0.25 | > 2.5
N=C(NCc1cccc2ccccc12)NC(=O)N1CCCC(C(N)=O)C1 (stereo not drawn) [Example 12, 1-[({Imino[(1-naphthylmethyl)amino]methyl}amino)carbonyl]-3-piperidine carboxamide] | – | 0.18 | –
N=C(NCc1cccc2ccccc12)NC(=O)NC1CCCCC1O (stereo not drawn) [Example 14, 1-({[({[(2-Hydroxycyclohexyl)amino]carbonyl}amino)(imino)methyl]amino}methyl)naphthalene] | 1.25 | 0.011 | 0.46
N=C(NCc1cccc2ccccc12)NC(=O)N[C@@H](CO)c1ccccc1 [Example 19, 1-({[[({[(1R)-2-Hydroxy-1-phenylethyl]amino}carbonyl)amino](imino)methyl]amino}methyl)naphthalene] | 0.93 | 0.11 | 0.2
N=C(NCc1cccc2ccccc12)NC(=O)Nc1cccc(C(N)=O)c1 [Example 27, 3-{[({Imino[(1-naphthylmethyl)amino]methyl}amino)carbonyl]amino}benzamide] | 0.079 | 0.018 | > 2.5
N=C(NCc1cccc2ccccc12)NC(=O)N1CCNCC1 [Example 37, N-(1-Naphthylmethyl)-N′-(1-piperazinylcarbonyl)guanidine] | – | 0.93 | –
CNC(=O)/N=C(/NCc1cccc2ccccc12)NC(=O)NC [Example 52, N-Methyl-N′-{(Z)-{[(methylamino)carbonyl]amino}[(1-naphthylmethyl)amino]methylidene}urea] | – | 1.01 | –
COc1ccccc1N1CCN(C(=O)NC(=N)N[C@H](C)c2ccc3ccccc3c2)CC1 [Example 82, N-{[4-(2-Methoxyphenyl)-1-piperazinyl]carbonyl}-N′-[(1R)-1-(2-naphthyl)ethyl]guanidine] | – | 1.08 | –
COc1ccccc1N1CCN(C(=O)NC(=N)N[C@H](C)c2cccc3ccccc23)CC1 [Example 83, N-{[4-(2-Methoxyphenyl)-1-piperazinyl]carbonyl}-N′-[(1R)-1-(1-naphthyl)ethyl]guanidine] | – | 0.75 | –
COc1ccc(CNC(=N)NC(C)=O)c2ccccc12 [Example 88, N-Acetyl-N′-[(4-methoxy-1-naphthyl)methyl]guanidine] | – | 1.23 | –
O=C(Nc1nc2ccccc2[nH]1)Nc1cc(F)ccc1F [Example 89] | – | 2.7 | –

Now from value to molecule:

Ki [1] [µM] | Ki [2] [µM] | Ki [3] [µM] | SMILES
3.2 | 0.046 | > 2.5 | N=C(NCc1cccc2ccccc12)NC(=O)NCC1CCNCC1 [Example 2, 4-({[({Imino[(1-naphthylmethyl)amino]methyl}amino)carbonyl]amino}methyl)piperidine]
– | 0.82 | – | COC(=O)NC(=N)NCc1cccc2ccccc12 [Example 4, Methylimino[(1-naphthylmethyl)amino]methylcarbamate]
0.91 | 0.025 | 0.92 | N=C(NCc1cccc2ccccc12)NC(=O)NCCCn1ccnc1 [Example 11]
3.05 | 0.032 | 1.91 | CN1CCCC1CCNC(=O)NC(=N)NCc1cccc2ccccc12 (stereo not drawn) [Example 13]
0.48 | 0.021 | 0.5 | N=C(NCc1cccc2ccccc12)NC(=O)NCCCO [Example 16, 1-({[({[(3-Hydroxypropyl)amino}carbonyl}amino)(imino)methyl]amino}methyl)naphthalene]
0.68 | 0.011 | 0.48 | N=C(NCc1cccc2ccccc12)NC(=O)NCc1cccc(CN)c1 [Example 17, 1-({[[({[3-(Aminomethyl)benzyl]amino}carbonyl)amino](imino)methyl]amino}methyl)naphthalene]
1.36 | 0.016 | 0.54 | N=C(NCc1cccc2ccccc12)NC(=O)NCc1cccs1 [Example 20, 2-({[({Imino[(1-naphthylmethyl)amino]methyl}amino)carbonyl]amino}methyl)thiophene]
1.45 | 0.01 | > 2.5 | CC(=O)NCCNC(=O)NC(=N)NCc1cccc2ccccc12 [Example 26, N-(2-{[({Imino[(1-naphthylmethyl)amino]methyl}amino)carbonyl]amino}ethyl)acetamide]
3.4 | 0.043 | 0.5 | COc1ccc(CNC(=O)NC(=N)NCc2cccc3ccccc23)cc1 [Example 28, 1-({[Imino({[(4-methoxybenzyl)amino]carbonyl}amino)methyl]amino}methyl)naphthalene]
1.51 | 0.013 | 1.58 | CC(O)CNC(=O)NC(=N)NCc1cccc2ccccc12 (stereo not drawn) [Example 30, 1({[({[(2-Hydroxypropyl)amino]carbonyl}amino)(imino)methyl]amino}methyl) naphthalene]
– | 0.019 | – | N=C(NCc1cccc2ccccc12)NC(=O)NCCc1ccc(O)cc1 [Example 31, 1-({[({[(4-Hydroxyphenethyl)amino]carbonyl}amino)(imino)methyl]amino}methyl) naphthalene]
1.3 | 0.024 | 0.78 | N=C(NCc1cccc2ccccc12)NC(=O)NCc1ccc(F)cc1 [Example 32, 1-({[({[(4-Fluorobenzyl)amino]carbonyl}amino)(imino)methyl]amino}methyl)naphthalene]
1.24 | 0.048 | 0.9 | N=C(NCc1cccc2ccccc12)NC(=O)NCCc1ccc(N)cc1 [Example 33, 1-({[({[(4-Amninophenethyl)amino]carbonyl}amino)(imino)methyl]amino}methyl) naphthalene]
7.75 | 0.013 | 1.79 | N=C(NCc1cccc2ccccc12)NC(=O)NC1CC1 [Example 34, 1-({[{[(Cyclopropylamino)carbonyl]amino}(imino)methyl]amino}methyl)naphthalene]
1.18 | 0.014 | > 2.5 | COCCCNC(=O)NC(=N)NCc1cccc2ccccc12 [Example 38, 1-(3-Imino-5-oxo-10-oxa-2,4,6-triazaundec-1-yl)naphthalene]
1.18 | 0.12 | 0.4 | N=C(NCc1cccc2ccccc12)NC(=O)NCCc1c[nH]c2ccc(Cl)cc12 [Example 39, 5-Chloro-3-(2-{[({imino[(1-naphthylmethyl)amino]methyl}amino)carbonyl]amino}ethyl)-1H-indole]
